One assay relates to NOMO-1. It is filed as cell-based. The protocol:
(§1) Cell lines were cultured in media that is optimal for their growth at 5% CO2, 37° C. in a tissue culture incubator. Prior to seeding for the proliferation assay, the cells were split at least 2 days before the assay to ensure optimal growth density. […] Cell viability and cell density were determined using a cell counter (Vi-Cell XR Cell Viability Analyzer, Beckman Coulter). […] Cells were seeded at a density of 1,000 cells per well in 45 μL of standard growth media. Plates were incubated at 5% CO2, 37° C. overnight in a tissue culture incubator. […] Each drug concentration was tested in quadruplets. […] Plates were incubated at room temperature for 10 minutes to stabilize luminescent signals prior to reading using a luminescence reader (EnVision Multilabel Plate Reader, PerkinElmer). To evaluate the effect of the drug treatments, luminescent counts from wells containing untreated cells (100% viability) were used to normalize treated samples.

For a further assay, the system named is EOL-1. It is filed as cell-based. On the procedure:
as §1

[1] abbreviates: CD74 ADC with the named linker-payload, 5 days.
Where [2] appears, read: CD74 ADC with the named linker-payload, 5 days, read-out: NOMO-1 IC50.
The mark [3] stands for this setting: CD74 ADC with the named linker-payload, 5 days, read-out: EOL-1 IC50.

Where a name gives a salt, the structure may show the parent alone. Read-outs that look alike come from different tables or passages of the source.

Consider `COc1ccccc1-c1nccc(COc2ccccc2C[C@@H](Oc2ncnc3sc(-c4ccc(F)cc4)c(-c4ccc(OCCN5CC[N+](C)(Cc6ccc(NC(=O)[C@H](CCCNC(N)=O)NC(=O)[C@@H](NC(=O)CCOCCN7C(=O)C=CC7=O)C(C)C)cc6CN(C)C(=O)CN(C)C(=O)CN(C)C(=O)CN(C)C(=O)CN(C)C(=O)CN(C)C(=O)CN(C)C(=O)CN(C)C(=O)CN(C)C(=O)CN(C)C(=O)CN(C)C(=O)CN(C)C(=O)CN(C)C(=O)CCC(=O)O)CC5)c(Cl)c4C)c23)C(=O)O)n1` [L35-P1], for which the IC50 in the assay on NOMO-1 is 6.9 nM; in the assay with EOL-1, 0.894 nM. For the same compound, the “NOMO-1 Amax” value in the assay with NOMO-1 (setting [1]) turned out to be 62.73. The “EOL-1 Amax” value with EOL-1 (setting [1]) came out at 75.56.
As to `COc1ccccc1-c1nccc(COc2ccccc2C[C@@H](Oc2ncnc3sc(-c4ccc(F)cc4)c(-c4ccc(OCCN5CC[N+](C)(Cc6ccc(NC(=O)[C@H](CCCNC(N)=O)NC(=O)[C@@H](NC(=O)CCOCCN7C(=O)C=CC7=O)C(C)C)cc6COCc6cn(CCOC(=O)NS(=O)(=O)NCCOCCOCCOCCC(=O)O)nn6)CC5)c(Cl)c4C)c23)C(=O)O)n1` [L60-P1, trifluoroacetate], in the assay on NOMO-1 (setting [1]), the “NOMO-1 Amax” value was found to be 76.94. The IC50 with NOMO-1 (setting [2]) amounted to 2.62 nM; with EOL-1 (setting [3]), 0.535 nM. Also, in the assay on EOL-1 (setting [1]), the “EOL-1 Amax” value was 79.04.
As to `COc1ccccc1-c1nccc(COc2ccccc2C[C@@H](Oc2ncnc3sc(-c4ccc(F)cc4)c(-c4ccc(OCCN5CC[N+](C)(Cc6ccc(NC(=O)[C@H](CCCNC(N)=O)NC(=O)[C@@H](NC(=O)CCOCCN7C(=O)C=CC7=O)C(C)C)cc6COCc6cn(CCOC(=O)NS(=O)(=O)NCCOCCOCCO[C@@H]7O[C@H](CO)[C@@H](O)[C@H](O)[C@H]7O)nn6)CC5)c(Cl)c4C)c23)C(=O)O)n1` [L62-P1, trifluoroacetate], the “NOMO-1 Amax” value in the assay with NOMO-1 (setting [1]) came to 65.18. The IC50 with NOMO-1 (setting [2]) was 3.41 nM; in the assay on EOL-1 (setting [3]), 0.771 nM. Also, the “EOL-1 Amax” value with EOL-1 (setting [1]) is given as 83.03.
For the compound `COc1ccccc1-c1nccc(COc2ccccc2C[C@@H](Oc2ncnc3sc(-c4ccc(F)cc4)c(-c4ccc(OCCN5CC[N+](C)(Cc6ccc(NC(=O)[C@H](CCCNC(N)=O)NC(=O)[C@@H](NC(=O)CCOCCN7C(=O)C=CC7=O)C(C)C)cc6COCc6cn(CCOC(=O)NS(=O)(=O)NCCOCCO[C@@H]7O[C@H](CO)[C@@H](O)[C@H](O)[C@H]7O)nn6)CC5)c(Cl)c4C)c23)C(=O)O)n1` [L63-P1, trifluoroacetate], in the assay on NOMO-1 (setting [1]), the “NOMO-1 Amax” value is 61.25. In the assay on NOMO-1 (setting [2]), the IC50 turned out to be 0.714 nM.
For the compound `COc1ccccc1-c1nccc(COc2ccccc2C[C@@H](Oc2ncnc3sc(-c4ccc(F)cc4)c(-c4ccc(OCCN5CC[N+](C)(Cc6ccc(NC(=O)[C@H](CCCNC(N)=O)NC(=O)[C@@H](NC(=O)CCOCCN7C(=O)C=CC7=O)C(C)C)cc6CN(C)C(=O)CN(CC(=O)O)CC(=O)O)CC5)c(Cl)c4C)c23)C(=O)O)n1` [L67-P1, 1-(2-((2-(bis(carboxymethyl)amino)-N-methylacetamido)methyl)-4-((S)-2-((S)-2-(3-(2-(2,5-dioxo-2,5-dihydro-1H-pyrrol-1-yl)ethoxy)propanamido)-3-methylbutanamido)-5-ureidopentanamido)benzyl)-4-(2-(4-(4-((R)-1-carboxy-2-(2-((2-(2-methoxyphenyl)pyrimidin-4-yl)methoxy)phenyl)ethoxy)-6-(4-fluorophenyl)thieno[2,3-d]pyrimidin-5-yl)-2-chloro-3-methylphenoxy)ethyl)-1-methylpiperazin-1-ium], the IC50 was found to be 2.49 nM with NOMO-1 and 0.261 nM in the assay with EOL-1. Besides, the “NOMO-1 Amax” value with NOMO-1 (setting [1]) is 79.39. Further, in the assay with EOL-1 (setting [1]), the “EOL-1 Amax” value is 119.3.
As for `COc1ccccc1-c1nccc(COc2ccccc2C[C@@H](Oc2ncnc3sc(-c4ccc(F)cc4)c(-c4ccc(OCCN5CC[N+](C)(Cc6ccc(NC(=O)[C@H](CCCNC(N)=O)NC(=O)[C@@H](NC(=O)CCOCCN7C(=O)C=CC7=O)C(C)C)cc6CN(C)C(=O)C[C@H](NC(=O)[C@@H]6O[C@H](O)[C@@H](O)[C@H](O)[C@H]6O)C(=O)O)CC5)c(Cl)c4C)c23)C(=O)O)n1` [L68-P1], the “NOMO-1 Amax” value in the assay on NOMO-1 (setting [1]) was determined as 91.25. For the same compound, the results for the IC50 with NOMO-1 (setting [2]) and with EOL-1 (setting [3]) were 6.91 nM and 0.788 nM, respectively. Moreover, in the assay with EOL-1 (setting [1]), the “EOL-1 Amax” value is on record as 127.3.
For `COc1ccccc1-c1nccc(COc2ccccc2C[C@@H](Oc2ncnc3sc(-c4ccc(F)cc4)c(-c4ccc(OCCN5CC[N+](C)(Cc6ccc(NC(=O)[C@H](CCCNC(N)=O)NC(=O)[C@@H](NC(=O)CCOCCN7C(=O)C=CC7=O)C(C)C)cc6CN(C)C(=O)C[C@H](NC(=O)OC6O[C@H](C(=O)O)[C@@H](O)[C@H](O)[C@H]6O)C(=O)O)CC5)c(Cl)c4C)c23)C(=O)O)n1` (stereo partly drawn) [L69-P1] the same measures were 95.03, 14.8 nM, 0.704 nM and 159.6.
Take `COc1ccccc1-c1nccc(COc2ccccc2C[C@@H](Oc2ncnc3sc(-c4ccc(F)cc4)c(-c4ccc(OCCN5CC[N+](C)(Cc6ccc(NC(=O)[C@H](CCCNC(N)=O)NC(=O)[C@@H](NC(=O)CCOCCN7C(=O)C=CC7=O)C(C)C)cc6CN(C)C(=O)[C@H](CCC(=O)O)NC(=O)CS(=O)(=O)O)CC5)c(Cl)c4C)c23)C(=O)O)n1` [L71-P1, 4-(2-(4-(4-((R)-1-carboxy-2-(2-((2-(2-methoxyphenyl)pyrimidin-4-yl)methoxy)phenyl)ethoxy)-6-(4-fluorophenyl)thieno[2,3-d]pyrimidin-5-yl)-2-chloro-3-methylphenoxy)ethyl)-1-(2-(((S)-4-carboxy-N-methyl-2-(2-sulfoacetamido)butanamido)methyl)-4-((S)-2-((S)-2-(3-(2-(2,5-dioxo-2,5-dihydro-1H-pyrrol-1-yl)ethoxy)propanamido)-3-methylbutanamido)-5-ureidopentanamido)benzyl)-1-methylpiperazin-1-ium]: in the assay with NOMO-1 (setting [1]), the “NOMO-1 Amax” value amounted to 53.62. The IC50 with NOMO-1 (setting [2]) is 9.82 nM; in the assay with EOL-1 (setting [3]), 0.341 nM. Further, in the assay with EOL-1 (setting [1]), the “EOL-1 Amax” value is 93.09.
On to `COCCOCCOCCOCCOCCOCCOCCOCCOCCOCCOCCOCCC(=O)N[C@@H](CCC(=O)O)C(=O)N(C)Cc1cc(NC(=O)[C@H](CCCNC(N)=O)NC(=O)[C@@H](NC(=O)CCOCCN2C(=O)C=CC2=O)C(C)C)ccc1C[N+]1(C)CCN(CCOc2ccc(-c3c(-c4ccc(F)cc4)sc4ncnc(O[C@H](Cc5ccccc5OCc5ccnc(-c6ccccc6OC)n5)C(=O)O)c34)c(C)c2Cl)CC1` [L72-P1], for which the “NOMO-1 Amax” value in the assay on NOMO-1 (setting [1]) is 57.68. In the assay on EOL-1 (setting [1]), the “EOL-1 Amax” value was 109.8. Also, in the assay with EOL-1 (setting [3]), the IC50 stood at 0.386 nM.
Consider `COc1ccccc1-c1nccc(COc2ccccc2C[C@@H](Oc2ncnc3sc(-c4ccc(F)cc4)c(-c4ccc(OCCN5CC[N+](C)(Cc6ccc(NC(=O)[C@H](CCCNC(N)=O)NC(=O)[C@@H](NC(=O)CCOCCN7C(=O)C=CC7=O)C(C)C)cc6CN(C)C(=O)[C@H](CCCCNC(=O)CS(=O)(=O)O)NC(=O)CS(=O)(=O)O)CC5)c(Cl)c4C)c23)C(=O)O)n1` [L78-P1, 4-(2-(4-(4-((R)-1-carboxy-2-(2-((2-(2-methoxyphenyl)pyrimidin-4-yl)methoxy)phenyl)ethoxy)-6-(4-fluorophenyl)thieno[2,3-d]pyrimidin-5-yl)-2-chloro-3-methylphenoxy)ethyl)-1-(4-((S)-2-((S)-2-(3-(2-(2,5-dioxo-2,5-dihydro-1H-pyrrol-1-yl)ethoxy)propanamido)-3-methylbutanamido)-5-ureidopentanamido)-2-(((S)-N-methyl-2,6-bis(2-sulfoacetamido)hexanamido)methyl)benzyl)-1-methylpiperazin-1-ium], for which the “NOMO-1 Amax” value in the assay with NOMO-1 (setting [1]) turned out to be 53.4. Further, the IC50 in the assay with NOMO-1 (setting [2]) came to 3.73 nM; in the assay with EOL-1 (setting [3]) it was 0.43 nM. For the same compound, the “EOL-1 Amax” value in the assay with EOL-1 (setting [1]) came out at 87.22.
`COc1ccccc1-c1nccc(COc2ccccc2C[C@@H](Oc2ncnc3sc(-c4ccc(F)cc4)c(-c4ccc(OCCN5CC[N+](C)(Cc6ccc(NC(=O)[C@H](CCCNC(N)=O)NC(=O)[C@@H](NC(=O)CCOCCN7C(=O)C=CC7=O)C(C)C)cc6CN(C)C(=O)C[C@H](NC(=O)CS(=O)(=O)O)C(=O)O)CC5)c(Cl)c4C)c23)C(=O)O)n1` [L79-P1, 4-(2-(4-(4-((R)-1-carboxy-2-(2-((2-(2-methoxyphenyl)pyrimidin-4-yl)methoxy)phenyl)ethoxy)-6-(4-fluorophenyl)thieno[2,3-d]pyrimidin-5-yl)-2-chloro-3-methylphenoxy)ethyl)-1-(2-(((S)-3-carboxy-N-methyl-3-(2-sulfoacetamido)propanamido)methyl)-4-((S)-2-((S)-2-(3-(2-(2,5-dioxo-2,5-dihydro-1H-pyrrol-1-yl)ethoxy)propanamido)-3-methylbutanamido)-5-ureidopentanamido)benzyl)-1-methylpiperazin-1-ium]: the IC50 in the assay with NOMO-1 was found to be 3.14 nM; in the assay with EOL-1, 0.492 nM. Besides, in the assay on NOMO-1 (setting [1]), the “NOMO-1 Amax” value stood at 56.07. In the assay on EOL-1 (setting [1]), the “EOL-1 Amax” value came out at 91.3.
For the compound `COc1ccccc1-c1nccc(COc2ccccc2C[C@@H](Oc2ncnc3sc(-c4ccc(F)cc4)c(-c4ccc(OCCN5CC[N+](C)(Cc6ccc(NC(=O)[C@H](CCCNC(N)=O)NC(=O)[C@@H](NC(=O)CCOCCN7C(=O)C=CC7=O)C(C)C)cc6CN(C)C(=O)[C@H](N)CS(=O)(=O)O)CC5)c(Cl)c4C)c23)C(=O)O)n1` [L86-P1], the half-maximal inhibitory concentration (IC50) in the assay with NOMO-1 came to 7.47 nM; with EOL-1, 0.721 nM. Further, in the assay on NOMO-1 (setting [1]), the “NOMO-1 Amax” value turned out to be 74.52. The “EOL-1 Amax” value in the assay with EOL-1 (setting [1]) is given as 105.5.

Broadly, the IC50 is the concentration that gives 50% inhibition.

For the origin of these results see patent US20230081720A1, “MCL-1 INHIBITOR ANTIBODY-DRUG CONJUGATES AND METHODS OF USE” (NOVARTIS AG, priority 2019, published 2023).
